Laboratory results: patent publication US5296496A, “2-saccharinylmethyl phosphates, phosphonates and phosphinates useful as proteolytic enzyme inhibitors and compositions and method of use thereof” (Sterling Winthrop Inc., priority 1992, dated 1994)

Target: T1, human leukocyte elastase (HLE) (Homo sapiens, UniProt P08246)
T1 sequence (P08246 30-267): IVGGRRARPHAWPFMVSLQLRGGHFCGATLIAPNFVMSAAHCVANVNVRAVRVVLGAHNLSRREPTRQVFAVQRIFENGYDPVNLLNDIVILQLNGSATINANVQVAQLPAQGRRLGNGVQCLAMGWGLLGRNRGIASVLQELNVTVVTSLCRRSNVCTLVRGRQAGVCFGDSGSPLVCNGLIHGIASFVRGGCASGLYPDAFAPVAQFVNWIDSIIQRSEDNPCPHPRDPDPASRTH
Assay: Inhibition constant Ki* of human leukocyte elastase (HLE), calculated as koff/kon
Assay type: biochemical
Conditions: unit inferred
Method: Thus, instead of measuring a Ki, a Ki * is calculated which is defined as the ratio of the koff /kon, the rate of reactivation of the enzyme to the rate of inactivation of the enzyme. The values of koff and kon are measured and Ki * is then calculated.
The rate of inactivation, kon, of enzymatic activity was determined for the compounds tested by measuring the enzyme activity of an aliquot of the respective enzyme as a function of time after addition of the test compound. […] The rate of inactivation is then equal to [formula] where [I] is the concentration of the inhibiting compound.
The reactivation constant, koff, is similarly determined, and the inhibition constant, Ki *, is then calculated as

`CCOP(=O)(OCC)OCN1C(=O)c2c(C(C)C)cc(OC)cc2S1(=O)=O` [Example 13] gave a Ki of 0.035 nM.
